Data on 4 compounds can be found in patent US20220389477A1, “METHOD FOR EVALUATING ANTIBIOTIC SUSCEPTIBILITY” (Vrije Universiteit Brussel, priority 2019, published 2022).

Values after ≈ are worked out from the molar mass of the structure shown.

The term MIC denotes the smallest concentration in the dilution series that meets the test's criterion for growth inhibition.

Holding throughout (assay type): cell-based
The test system of experiment [1] is Streptococcus Pneumoniae. The experiment can be described thus: E-test, broth + horse blood trial. How it is done: Tables 14 and 15 show the results of experiment whereby a bacteria culture is grown in blood instead of broth. The experiments of Table 14 were conducted by illuminating the light-transmissive wells with a light having a wavelength of 635 nm. The experiments of Table 15 were conducted by illuminating the light-transmissive wells with a light having a wavelength of 650 nm. […] The determination of the best wavelength may or may not be based on the commercial availability of the spectral line. The choice of the optimal wavelength may or may not be determined by calculating the absorbance for various wavelengths. The choice of the optimal wavelength can also be based on the combination of the comparison with the other two methods, the commercial availability and on the calculation of the absorbance for various wavelengths.

Experiment [2] relates to Streptococcus Pneumoniae. Nature of the experiment: Optical third-derivative MIC method (MICSTRIP), broth + horse blood. Conditions: for MICSTRIP (MIC): broth + horse blood. An excerpt: (§1) The method of FIG. 1 starts at a time equal to zero, t0 (1). Preferably, said t0 is the moment a pure bacteria culture is finished being prepared. Alternatively, said t0 is the moment all wells contain both said bacteria culture and said antimicrobial drug. After the starting of the experiment each well is periodically illuminated with a light source and the intensity of the transmitted light is detected with a photodetector (2). Preferably, each well is illuminated and the intensity of the transmitted light is detected every hour (2). More preferably, each well is illuminated and the intensity of the transmitted light is detected every 5 to 15 min. After a predetermined time length, preferably after 4 hours, a first, a second and a third derivative of said measured intensity is calculated (3) in a first and a second time frame for each well. Preferably, said second time frame is the last measured time frame after the test has been running for said predetermined time length, and said first time frame is the time frame preceding the second time frame. More preferably, said first time frame is between two and three hours and said second time frame is between three and four hours. After the calculation of said derivatives, said first derivative in said second time frame of said reference well is compared to a growth speed threshold value (4). Preferably, said growth speed threshold value is 0.166 (4). If said first derivative in said second time frame of said reference well is larger than or equal to said growth speed threshold value said bacteria culture is classified as Type I (4). If said first derivative in said second time frame of said reference well is smaller than said growth speed threshold value said bacteria culture is classified as Type II (4). Subsequently, independent of the classification of the bacteria culture according to the two types, the method comprises the following steps which are performed for each well or for all wells except said reference well. Both said first and said second time frames are evaluated to see if there is an inflection point present in the second derivative in said first and/or said second time frame (5).
(§2) If said first and/or said second time frame comprise said inflection point than said third derivative in said first time frame is compared to said third derivative in said second time frame (6). If said third derivative in said first time frame is larger than said third derivative in said second time frame, then said first time frame and said second time frame are selected as a first and second time frame to be used in a minimal inhibitory concentration determination method (10). If said third derivative in said first time frame is not larger than said third derivative in said second time frame, then said well is illuminated again after a certain time period, preferably an hour, more preferably 5 to 15 min after said predetermined time length said, with a light source and the intensity of the transmitted light is detected with a photodetector forming a new time frame subsequent to said second time frame (7). A third derivative, and possibly also a first and/or a second derivative, is calculated in said new time frame (7). Further, in step (7) a new first time frame is put equal to said second time frame and a new second time frame to equal to said new time frame. Subsequently, said third derivative in said new first time frame is compared to said third derivative in said new second time frame (8). If said derivative in said new first time frame is larger than said third derivative in said new second time frame, then said new first time frame and said new second time frame are selected as a first and second time frame to be used in a minimal inhibitory concentration determination method (10). […]

Experiment [3] concerns Streptococcus Pneumoniae. Nature of the experiment: BMD, broth + horse blood trial.
Experiment [4] relates to Pseudomonas aeruginosa culture. Nature of the experiment: Broth microdilution (BMD). (In general: Broth dilution looks for growth in wells or tubes with falling amounts of substance.)
Experiment [5] deals with Pseudomonas aeruginosa culture. Nature of the experiment: Optical third-derivative MIC method, culture in broth. To be noted: for MIC: Pseudomonas aeruginosa.
Source text: as §1, §2

For experiment [6], the system named is Pseudomonas aeruginosa culture. The experiment can be described thus: E-test. Conditions: culture PA/2472.

Turning to `CC1(C)S[C@@H]2[C@H](NC(=O)Cc3ccccc3)C(=O)N2[C@H]1C(=O)O` [Benzyl-penicilline], the “HR E-test” value in the experiment with Streptococcus Pneumoniae [1] (strain 2532), with Streptococcus Pneumoniae [1] (strain 2543), in the experiment with Streptococcus Pneumoniae [1] (strain 2544) and with Streptococcus Pneumoniae [1] (strain ATCC 49619) was “no” each time. In addition, the E-test (MIC) with Streptococcus Pneumoniae [1] (strain 2543) was determined as 1.5 µg/mL; with Streptococcus Pneumoniae [1] (strain 2544) it was 0.1 µg/mL; in the experiment with Streptococcus Pneumoniae [1] (strain ATCC 49619), 0.25 µg/mL. The MICSTRIP (MIC) in the experiment on Streptococcus Pneumoniae [2] (strain 2532, 635 nm) came out at 0.016 µg/mL; with Streptococcus Pneumoniae [2] (strain 2532, 650 nm), 0.016 µg/mL; with Streptococcus Pneumoniae [2] (strain 2543, 635 nm), 1 µg/mL; with Streptococcus Pneumoniae [2] (strain 2543, 650 nm) it was 1 µg/mL; in the experiment with Streptococcus Pneumoniae [2] (strain 2544, 635 nm), 0.256 µg/mL; in the experiment with Streptococcus Pneumoniae [2] (strain 2544, 650 nm), 0.256 µg/mL. The MICSTRIP (MIC) in the experiment on Streptococcus Pneumoniae [2] (strain ATCC 49619, 635 nm) amounted to 0.256 µg/mL; in the experiment on Streptococcus Pneumoniae [2] (strain ATCC 49619, 650 nm), 0.256 µg/mL. Further, the “HR MICSTRIP” value is “no (If the ratio of the MIC value in the second time frame over the MIC value in the first time frame is lower than or equal to 4 then the ratio is labelled not to be heteroresistant)” in the experiment with Streptococcus Pneumoniae [2] (strain 2543, 635 nm); “no (If the ratio of the MIC value in the second time frame over the MIC value in the first time frame is lower than or equal to 4 then the ratio is labelled not to be heteroresistant)” in the experiment with Streptococcus Pneumoniae [2] (strain 2543, 650 nm); “no (If the ratio of the MIC value in the second time frame over the MIC value in the first time frame is lower than or equal to 4 then the ratio is labelled not to be heteroresistant)” with Streptococcus Pneumoniae [2] (strain ATCC 49619, 635 nm); “no (If the ratio of the MIC value in the second time frame over the MIC value in the first time frame is lower than or equal to 4 then the ratio is labelled not to be heteroresistant)” in the experiment with Streptococcus Pneumoniae [2] (strain ATCC 49619, 650 nm). Further, the BMD (MIC) in the experiment with Streptococcus Pneumoniae [3] (strain 2532) worked out at 0.016 µg/mL; in the experiment on Streptococcus Pneumoniae [3] (strain 2543), 2 µg/mL; in the experiment on Streptococcus Pneumoniae [3] (strain 2544) it was 0.256 µg/mL; in the experiment on Streptococcus Pneumoniae [3] (strain ATCC 49619) it was 0.256 µg/mL.

Turning to `CO/N=C(\C(=O)N[C@@H]1C(=O)N2C(C(=O)O)=C(CSc3nc(=O)c(=O)[nH]n3C)CS[C@H]12)c1csc(N)n1` [Ceftriaxone], the E-test (MIC) with Streptococcus Pneumoniae [1] (strain 2532) is at most 0.16 µg/mL; in the experiment on Streptococcus Pneumoniae [1] (strain 2543), 0.125 µg/mL; in the experiment with Streptococcus Pneumoniae [1] (strain 2544) it was 0.024 µg/mL; with Streptococcus Pneumoniae [1] (strain ATCC 49619), 0.047 µg/mL. Also, the “HR E-test” value with Streptococcus Pneumoniae [1] (strain 2532), with Streptococcus Pneumoniae [1] (strain 2543), in the experiment on Streptococcus Pneumoniae [1] (strain 2544) and with Streptococcus Pneumoniae [1] (strain ATCC 49619) was “no” throughout. Also, the MICSTRIP (MIC) in the experiment with Streptococcus Pneumoniae [2] (strain 2532, 635 nm) amounted to 0.016 µg/mL; in the experiment on Streptococcus Pneumoniae [2] (strain 2532, 650 nm), 0.016 µg/mL; in the experiment on Streptococcus Pneumoniae [2] (strain 2543, 635 nm), 0.256 µg/mL; in the experiment with Streptococcus Pneumoniae [2] (strain 2543, 650 nm), 0.256 µg/mL; with Streptococcus Pneumoniae [2] (strain 2544, 635 nm), 0.064 µg/mL; with Streptococcus Pneumoniae [2] (strain 2544, 650 nm) it was 0.064 µg/mL. Also, the MICSTRIP (MIC) was 0.032 µg/mL with Streptococcus Pneumoniae [2] (strain ATCC 49619, 635 nm) and over 16 µg/mL with Streptococcus Pneumoniae [2] (strain ATCC 49619, 650 nm). The “HR MICSTRIP” value with Streptococcus Pneumoniae [2] (strain ATCC 49619, 650 nm) is listed as “no (If the ratio of the MIC value in the second time frame over the MIC value in the first time frame is lower than or equal to 4 then the ratio is labelled not to be heteroresistant)”. In addition, the BMD (MIC) in the experiment on Streptococcus Pneumoniae [3] (strain 2532) came to 0.008 µg/mL; in the experiment with Streptococcus Pneumoniae [3] (strain 2543) it was 0.256 µg/mL; with Streptococcus Pneumoniae [3] (strain 2544), 0.064 µg/mL; with Streptococcus Pneumoniae [3] (strain ATCC 49619), 0.064 µg/mL.

With `CO/N=C(\C(=O)N[C@@H]1C(=O)N2C(C(=O)[O-])=C(C[N+]3(C)CCCC3)CS[C@H]12)c1csc(N)n1` [cefepime], the MIC in experiment [4] (culture PA/2467) is 16 µg/mL (≈ 33.3 µM); in experiment [5] (PA/2467, 5 h-6 h, only time frame, omitted from determination (Type II), read-out: MIC (25%)) it was 8 µg/mL (≈ 16.6 µM); in experiment [5] (PA/2467, 5 h-6 h, only time frame, read-out: MIC (40%)), 8 µg/mL (≈ 16.6 µM); in experiment [5] (PA/2467, 5 h-6 h, only time frame, read-out: MIC (60%)) it was 4 µg/mL (≈ 8.32 µM); in experiment [5] (PA/2467, 5 h-6 h, only time frame, read-out: MIC (75%)) it was 4 µg/mL (≈ 8.32 µM); in experiment [5] (PA/2467, FIG. 5F, overall conclusion, read-out: MIC value determined by the method), 8 µg/mL (≈ 16.6 µM).

Take `CC(C)(O/N=C(\C(=O)N[C@@H]1C(=O)N2C(C(=O)[O-])=C(C[n+]3ccccc3)CS[C@H]12)c1csc(N)n1)C(=O)O` [ceftazidime]: the MIC amounted to 32 µg/mL (≈ 58.5 µM) in experiment [6] (Pseudomonas aeruginosa); 32 µg/mL (≈ 58.5 µM) in experiment [4] (culture PA/2472); 64 µg/mL (≈ 117 µM) in experiment [5] (PA/2472, 3 h-4 h, omitted from determination (Type II), read-out: MIC (25%) T1); 32 µg/mL (≈ 58.5 µM) in experiment [5] (PA/2472, 3 h-4 h, read-out: MIC (40%) T1); 32 µg/mL (≈ 58.5 µM) in experiment [5] (PA/2472, 3 h-4 h, read-out: MIC (60%) T1); 32 µg/mL (≈ 58.5 µM) in experiment [5] (PA/2472, 3 h-4 h, read-out: MIC (75%) T1). The MIC in experiment [5] (PA/2472, 5 h-6 h, omitted from determination (Type II), read-out: MIC (25%) T2) stood at 64 µg/mL (≈ 117 µM); in experiment [5] (PA/2472, 5 h-6 h, read-out: MIC (40%) T2), 32 µg/mL (≈ 58.5 µM); in experiment [5] (PA/2472, 5 h-6 h, read-out: MIC (60%) T2) it was 32 µg/mL (≈ 58.5 µM); in experiment [5] (PA/2472, 5 h-6 h, read-out: MIC (75%) T2), 32 µg/mL (≈ 58.5 µM); in experiment [5] (PA/2472, FIG. 5E, overall conclusion, read-out: MIC value determined by the method), 32 µg/mL (≈ 58.5 µM). For the same compound, the “HR? (E-test)” value in experiment [6] is reported as “no”. The “heteroresistance determined by the method” value in experiment [5] (PA/2472, FIG. 5E, overall conclusion) was “not heteroresistant”. The “HR? at MIC (40%)” value in experiment [5] (PA/2472, ratio MIC T2/T1) is listed as “no (If the ratio of the MIC value in the second time frame over the MIC value in the first time frame is lower than or equal to 4 then the ratio is labelled not to be heteroresistant)”. For the same compound, the “HR? at MIC (60%)” value in experiment [5] (PA/2472, ratio MIC T2/T1) is “no (If the ratio of the MIC value in the second time frame over the MIC value in the first time frame is lower than or equal to 4 then the ratio is labelled not to be heteroresistant)”. Besides, the “HR? at MIC (75%)” value in experiment [5] (PA/2472, ratio MIC T2/T1) was “no (If the ratio of the MIC value in the second time frame over the MIC value in the first time frame is lower than or equal to 4 then the ratio is labelled not to be heteroresistant)”. Besides, the “HR? at MIC (25%)” value in experiment [5] (PA/2472, ratio MIC T2/T1, omitted (Type II)) is “no (If the ratio of the MIC value in the second time frame over the MIC value in the first time frame is lower than or equal to 4 then the ratio is labelled not to be heteroresistant)”.
